Test results reported in PubChem BioAssay AID1963866 (Molecular Pharmacology Branch, DTP, NCI, 2024).
pIC50: −log10 of the molar value. Where “and” joins values, the source holds several entries; their conditions need not be identical. Equal values may be shown once.

System: PDC KRAS tumor spheroids with HUVEC/MSC, viability
Assay: Anticancer human tumor 349418-098-R-PDC patient-derived lung adenocarcinoma cell line growth inhibition [KRAS2]
Conditions: for viability, T/C: stronger effect = lower value
In short: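 Combination screen of spheroid viability in tumor-cell co-cultures with endothelial (HUVEC) and mesenchymal stem cell stroma. Each agent was tested in half-log dilutions, topping at clinical Cmax or at 10 microM without a known Cmax.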

[1] = curve of first compound, second compound 0.1 µM
[2] = curve of first compound, second compound 0.316 µM
[3] = curve of first compound, second compound 1 µM
[4] = curve of first compound, second compound 3.16 µM
[5] = curve of first compound, second compound 10 µM
[6] = second compound 0.1 µM, first compound 0.0316 µM
[7] = second compound 0.1 µM, first compound 0.1 µM
[8] = second compound 0.1 µM, first compound 0.316 µM
[9] = second compound 0.1 µM, first compound 1 µM
[10] = second compound 0.1 µM, first compound 3.16 µM
[11] = second compound 0.1 µM, first compound 10 µM
[12] = second compound 0.316 µM, first compound 0.0316 µM
[13] = second compound 0.316 µM, first compound 0.1 µM
[14] = second compound 0.316 µM, first compound 0.316 µM
[15] = second compound 0.316 µM, first compound 1 µM
[16] = second compound 0.316 µM, first compound 3.16 µM
[17] = second compound 0.316 µM, first compound 10 µM
[18] = second compound 1 µM, first compound 0.0316 µM
[19] = second compound 1 µM, first compound 0.1 µM
[20] = second compound 1 µM, first compound 0.316 µM
[21] = second compound 1 µM, first compound 1 µM
[22] = second compound 1 µM, first compound 3.16 µM
[23] = second compound 1 µM, first compound 10 µM
[24] = second compound 3.16 µM, first compound 0.0316 µM
[25] = second compound 3.16 µM, first compound 0.1 µM
[26] = second compound 3.16 µM, first compound 0.316 µM
[27] = second compound 3.16 µM, first compound 1 µM
[28] = second compound 3.16 µM, first compound 3.16 µM
[29] = second compound 3.16 µM, first compound 10 µM
[30] = second compound 10 µM, first compound 0.0316 µM
[31] = second compound 10 µM, first compound 0.1 µM
[32] = second compound 0.1 µM, first compound 0.000316 µM
[33] = second compound 0.1 µM, first compound 0.001 µM
[34] = second compound 0.1 µM, first compound 0.00316 µM
[35] = second compound 0.1 µM, first compound 0.01 µM
[36] = second compound 0.316 µM, first compound 0.000316 µM
[37] = second compound 0.316 µM, first compound 0.001 µM
[38] = second compound 0.316 µM, first compound 0.00316 µM
[39] = second compound 0.316 µM, first compound 0.01 µM
[40] = second compound 1 µM, first compound 0.000316 µM
[41] = second compound 1 µM, first compound 0.001 µM
[42] = second compound 1 µM, first compound 0.00316 µM
[43] = second compound 1 µM, first compound 0.01 µM
[44] = second compound 3.16 µM, first compound 0.000316 µM
[45] = second compound 3.16 µM, first compound 0.001 µM
[46] = second compound 3.16 µM, first compound 0.00316 µM
[47] = second compound 3.16 µM, first compound 0.01 µM
[48] = second compound 10 µM, first compound 0.000316 µM
[49] = second compound 10 µM, first compound 0.001 µM
[50] = second compound 10 µM, first compound 0.00316 µM
[51] = second compound 10 µM, first compound 0.01 µM
[52] = curve of first compound, second compound 0.0316 µM
[53] = second compound 0.0316 µM, first compound 0.0316 µM
[54] = second compound 0.0316 µM, first compound 0.1 µM
[55] = second compound 0.0316 µM, first compound 0.316 µM
[56] = second compound 0.0316 µM, first compound 1 µM
[57] = second compound 0.0316 µM, first compound 3.16 µM
[58] = second compound 0.0316 µM, first compound 10 µM
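Also: spheroids exposed to compounds for seven days before readout.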

O=C(c1cc(Cc2n[nH]c(=O)c3ccccc23)ccc1F)N1CCN(C(=O)C2CC2)CC1 + CC1OCC2(CCN(c3cnc(Sc4ccnc(N)c4Cl)c(N)n3)CC2)C1N
pIC50 [1]: 5.33 | pIC50 [2]: 5.49 | pIC50 [3]: 5.37 | pIC50 [4]: 5.55 | pIC50 [5]: 5.84 | viability, T/C [6]: 95.9% | viability, T/C [7]: 89.7% | viability, T/C [8]: 89% | viability, T/C [9]: 81.3% | viability, T/C [10]: 63.5% | viability, T/C [11]: 25.3% | viability, T/C [12]: 78.8% | viability, T/C [13]: 82.6% | viability, T/C [14]: 77.3% | viability, T/C [15]: 78.5% | viability, T/C [16]: 50.6% | viability, T/C [17]: 29.2% | viability, T/C [18]: 107% | viability, T/C [19]: 97.3% | viability, T/C [20]: 81.8% | viability, T/C [21]: 59.9% | viability, T/C [22]: 66.7% | viability, T/C [23]: 33% | viability, T/C [24]: 90.8% | viability, T/C [25]: 84% | viability, T/C [26]: 68.6% | viability, T/C [27]: 70.6% | viability, T/C [28]: 48.3% | viability, T/C [29]: 23.9% | viability, T/C [30]: 80.9% | viability, T/C [31]: 72.8% | viability, T/C (second compound 10 µM, first compound 0.316 µM): 59.2% | viability, T/C (second compound 10 µM, first compound 1 µM): 56.6% | viability, T/C (second compound 10 µM, first compound 3.16 µM): 44.1% | viability, T/C (second compound 10 µM, first compound 10 µM): 29.7%

CN(C)C/C=C/C(=O)Nc1cc2c(Nc3ccc(F)c(Cl)c3)ncnc2cc1O[C@H]1CCOC1 + C=CC(=O)N1CCN(c2nc(=O)n(-c3c(C)ccnc3C(C)C)c3nc(-c4c(O)cccc4F)c(F)cc23)C(C)C1
pIC50 [1]: < 7.00 | pIC50 [2]: < 7.00 | pIC50 [3]: < 7.00 | pIC50 [4]: < 7.00 | pIC50 [5]: > 9.50 | viability, T/C [32]: 104% | viability, T/C [33]: 97.8% | viability, T/C [34]: 98.7% | viability, T/C [35]: 83.3% | viability, T/C [6]: 99.1% | viability, T/C [7]: 94% | viability, T/C [36]: 96.6% | viability, T/C [37]: 106% | viability, T/C [38]: 95.1% | viability, T/C [39]: 91.7% | viability, T/C [12]: 100% | viability, T/C [13]: 87.5% | viability, T/C [40]: 90.6% | viability, T/C [41]: 85.6% | viability, T/C [42]: 81% | viability, T/C [43]: 95.3% | viability, T/C [18]: 80.5% | viability, T/C [19]: 78.2% | viability, T/C [44]: 78% | viability, T/C [45]: 68.4% | viability, T/C [46]: 83.8% | viability, T/C [47]: 59.5% | viability, T/C [24]: 55.2% | viability, T/C [25]: 64.9% | viability, T/C [48]: 40.9% | viability, T/C [49]: 40.2% | viability, T/C [50]: 35.9% | viability, T/C [51]: 32.3% | viability, T/C [30]: 27.5% | viability, T/C [31]: 32.6%

COc1cc(Nc2ncc3c(n2)-c2ccc(Cl)cc2C(c2c(F)cccc2OC)=NC3)ccc1C(=O)O + C=CC(=O)N1CCN(c2nc(OCC3CCCN3C)nc3c2CCN(c2cccc4cccc(C)c24)C3)CC1CC#N
pIC50 [52]: 7.39 | pIC50 [1]: 7.26 | pIC50 [2]: > 7.50 | pIC50 [3]: > 7.50 | pIC50 [4]: > 7.50 | viability, T/C [53]: 55.8% | viability, T/C [54]: 29.1% | viability, T/C [55]: 33.7% | viability, T/C [56]: 28.3% | viability, T/C [57]: 28.1% | viability, T/C [58]: 21.2% | viability, T/C [6]: 60.8% | viability, T/C [7]: 36.3% | viability, T/C [8]: 36.3% | viability, T/C [9]: 26.1% | viability, T/C [10]: 28.2% | viability, T/C [11]: 25.4% | viability, T/C [12]: 49.7% | viability, T/C [13]: 20.5% | viability, T/C [14]: 27.8% | viability, T/C [15]: 31.9% | viability, T/C [16]: 20.2% | viability, T/C [17]: 19.4% | viability, T/C [18]: 24% | viability, T/C [19]: 24% | viability, T/C [20]: 21.8% | viability, T/C [21]: 19.7% | viability, T/C [22]: 16.2% | viability, T/C [23]: 17% | viability, T/C [24]: 0.09% | viability, T/C [25]: 0.09% | viability, T/C [26]: 0.11% | viability, T/C [27]: 0.08% | viability, T/C [28]: 0.49% | viability, T/C [29]: 0.12%

CC(C)NCC(C(=O)N1CCN(c2ncnc3c2C(C)CC3O)CC1)c1ccc(Cl)cc1 (stereo not given) + C=CC(=O)N1CCN(c2nc(OCC3CCCN3C)nc3c2CCN(c2cccc4cccc(C)c24)C3)CC1CC#N
pIC50 [52]: 6.50 | pIC50 [1]: 6.60 | pIC50 [2]: 6.54 | pIC50 [3]: 6.65 | pIC50 [4]: > 7.50 | viability, T/C [53]: 95.7% | viability, T/C [54]: 69.4% | viability, T/C [55]: 52.3% | viability, T/C [56]: 30.7% | viability, T/C [57]: 16.9% | viability, T/C [58]: 6.91% | viability, T/C [6]: 90.8% | viability, T/C [7]: 76.8% | viability, T/C [8]: 42.5% | viability, T/C [9]: 20.9% | viability, T/C [10]: 15.2% | viability, T/C [11]: 7.07% | viability, T/C [12]: 87.7% | viability, T/C [13]: 77.9% | viability, T/C [14]: 44.7% | viability, T/C [15]: 24.6% | viability, T/C [16]: 15.7% | viability, T/C [17]: 5.1% | viability, T/C [18]: 79.9% | viability, T/C [19]: 66.1% | viability, T/C [20]: 43.7% | viability, T/C [21]: 19% | viability, T/C [22]: 8.97% | viability, T/C [23]: 4.67% | viability, T/C [24]: 0.14% | viability, T/C [25]: 0.14% | viability, T/C [26]: 0.1% | viability, T/C [27]: 0.23% | viability, T/C [28]: 0.21% | viability, T/C [29]: 0.13%

Cn1ncnc1[C@H]1c2n[nH]c(=O)c3cc(F)cc(c23)N[C@@H]1c1ccc(F)cc1 + CC1OCC2(CCN(c3cnc(Sc4ccnc(N)c4Cl)c(N)n3)CC2)C1N
pIC50 [1]: < 7.00 | pIC50 [2]: < 7.00 | pIC50 [3]: < 7.00 | pIC50 [4]: < 7.00 | pIC50 [5]: < 7.00 | viability, T/C [32]: 105% | viability, T/C [33]: 102% | viability, T/C [34]: 95.9% | viability, T/C [35]: 95.7% | viability, T/C [6]: 88.6% | viability, T/C [7]: 85.8% | viability, T/C [36]: 93.5% | viability, T/C [37]: 97.2% | viability, T/C [38]: 95.6% | viability, T/C [39]: 87.5% | viability, T/C [12]: 83.3% | viability, T/C [13]: 73.9% | viability, T/C [40]: 95.8% | viability, T/C [41]: 93% | viability, T/C [42]: 92.2% | viability, T/C [43]: 83.8% | viability, T/C [18]: 82.6% | viability, T/C [19]: 76% | viability, T/C [44]: 90.3% | viability, T/C [45]: 83.1% | viability, T/C [46]: 83.3% | viability, T/C [47]: 79.8% | viability, T/C [24]: 73.7% | viability, T/C [25]: 74.2% | viability, T/C [48]: 78.9% | viability, T/C [49]: 74.4% | viability, T/C [50]: 76.7% | viability, T/C [51]: 66.7% | viability, T/C [30]: 62.8% | viability, T/C [31]: 61.9%

CC1OCC2(CCN(c3cnc(Sc4ccnc(N)c4Cl)c(N)n3)CC2)C1N (stereo not given)
viability, T/C (compound 0.0316 µM): 102% (2×) and 80.3% | pIC50 (compound alone, run of 07/12/2021): 5.00 and < 5.00 | pIC50 (compound alone, run of 07/19/2021): < 5.00 | pIC50 (compound alone, run of 07/26/2021): < 5.00 | pIC50 (curve of compound): < 5.00
